Six molecules from publication PMC9352109, “Novel silkworm (Bombyx mori) sulfotransferase swSULT ST3 is involved in metabolism of polyphenols from mulberry leaves” (PLoS ONE, 2022) can be followed below.

Each structure is given as a SMILES string.

In general, IC50 refers to the concentration that gives 50% inhibition. High values mean a need for much substance, low ones inhibition by little substance.

The target of the test is T1, AKR2E8 (Bombyx mori, UniProt A0A8D5RRY4).
T1 sequence (A0A8D5RRY4 1-331 limits assumed): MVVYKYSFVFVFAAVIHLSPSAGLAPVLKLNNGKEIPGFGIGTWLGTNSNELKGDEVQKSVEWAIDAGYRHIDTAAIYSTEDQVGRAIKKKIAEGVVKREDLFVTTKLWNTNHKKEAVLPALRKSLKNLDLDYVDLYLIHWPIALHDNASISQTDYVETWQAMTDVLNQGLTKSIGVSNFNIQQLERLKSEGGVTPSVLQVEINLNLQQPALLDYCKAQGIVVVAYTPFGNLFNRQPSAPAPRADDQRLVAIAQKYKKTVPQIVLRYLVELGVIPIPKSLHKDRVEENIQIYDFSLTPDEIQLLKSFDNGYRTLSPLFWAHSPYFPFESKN
The test is described as follows: NADPH-linked benzaldehyde reduction. The settings on record: 0.1 mM NADPH, 25 μM benzaldehyde, 0.1 M potassium phosphate pH 7.4. The format is biochemical. The text has this:
NADPH-linked benzaldehyde reduction on AKR2E8
For the molecule `O=c1cc(-c2ccc(O)cc2)oc2cc(O)cc(O)c12` [Apigenin], the IC50 was 170 ± 10 nM.

In the case of `O=c1c(-c2ccc(O)cc2)coc2cc(O)ccc12` [Daidzein], half-maximal inhibition (IC50) was put at 34 ± 2.7 nM.

`O=c1c(-c2ccc(O)cc2)coc2cc(O)cc(O)c12` [Genistein]: the IC50 was 18 ± 1.4 nM.

`O=c1c(O)c(-c2ccc(O)cc2)oc2cc(O)cc(O)c12` [Kaempferol] had an IC50 of 460 ± 120 nM.

Molecule `O=c1c(O)c(-c2ccc(O)c(O)c2)oc2cc(O)cc(O)c12` [Quercetin] showed an IC50 of 65 ± 1.8 nM.

In the case of `Oc1ccc(/C=C/c2cc(O)cc(O)c2)cc1` [Resveratrol], the IC50 amounted to 550 ± 23 nM.
